Holding throughout (assay): growth of human tumour cells (NCI), 48 h
Experiment [1] has as its system 786-0 renal.
For experiment [2], the system named is ACHN renal.
In experiment [3] the test system is EKVX NSCLC.
Experiment [4] has as its system HCT-116 colon.
The subject of experiment [5] is HCT-15 colon.
Experiment [6] has as its system HOP-62 NSCLC.
Experiment [7] concerns NCI-H23 lung.
For experiment [8], the system named is NCI-H460 lung.
The subject of experiment [9] is SN12C renal.
Experiment [10] has as its system SNB-19 CNS.

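Exposure lasted 48 hours, with cells grown in 96-well plates and compounds tested at five concentrations. At the GI50, growth is halved. TGI marks complete inhibition of growth.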

For the compound `CO[C@@H]1CCN(c2nccc(Nc3cc4c(C(C)C)ccc(N5CC(CS(C)(=O)=O)[C@H]5C)c4cn3)n2)C[C@@H]1F` (some centres undefined), the GI50 was 7.18 µM in experiment [1]; 1.33 µM in [2]; 1.21 µM in experiment [3]; 3.26 µM in experiment [4]; 2.84 µM in [5]; 4.46 µM in [6]. The GI50 was 3.7 µM in [7], 3.51 µM in [8], 3.35 µM in experiment [9] and 5.19 µM in experiment [10]. For the same compound, the TGI in experiment [1] was greater than 100 µM; in [2] it was 44.6 µM; in [3] it was greater than 100 µM; in experiment [4] it was greater than 100 µM; in experiment [5] it was 14.4 µM; in experiment [6], greater than 100 µM. The TGI in experiment [7] is 20.4 µM; in experiment [8], 20.5 µM; in experiment [9] it was greater than 100 µM; in [10], greater than 100 µM.

As to `CN(C)C(=O)OCc1nc2c(N3CCOCC3)nc(-c3ccccc3)nc2n1C`, the GI50 is 0.892 µM in experiment [1]; 0.415 µM in experiment [2]; 1.44 µM in experiment [3]; 0.204 µM in [4]; 0.22 µM in experiment [5]; 1.72 µM in experiment [6]. The GI50 is 1.62 µM in experiment [7], 1.66 µM in experiment [8], 0.912 µM in experiment [9] and 1.53 µM in [10]. In addition, the TGI in experiment [1] was determined as 2.31 µM; in experiment [2] it was 1.43 µM; in experiment [3], 2.95 µM; in [4] it was 0.616 µM; in [5] it was 0.561 µM; in experiment [6] it was 4.46 µM. In addition, the TGI in [7] came to 3.35 µM; in experiment [8], 3.52 µM; in experiment [9], 2.31 µM; in [10], 2.93 µM.

For `CNCC/C=C1\c2cc3c(cc2-c2c1c1cc(OC)c(OC)cc1c(=O)n2C)OCO3`, the GI50 in experiment [1] was 0.587 µM; in [2], 0.167 µM; in experiment [3], 2.36 µM; in [4], 0.0679 µM; in [5], 0.585 µM; in [6] it was 0.596 µM. Besides, the GI50 in experiment [7] was 1.33 µM; in [8] it was 0.196 µM; in experiment [9], 0.207 µM; in experiment [10], 1.08 µM. Moreover, the TGI in [1] came to 33 µM; in [2] it was 2.21 µM; in experiment [3] it was 18.3 µM; in experiment [5], 13 µM; in [6], 21.9 µM; in experiment [7] it was 7.75 µM. The results for the TGI in [8], in [9] and in [10] were 5.97 µM, 6.06 µM and 23.1 µM, respectively.

As to `COCCOCCOCc1n(Cc2ccc3ccccc3c2)c2ccccc2[n+]1Cc1ccc2ccccc2c1`, the GI50 in experiment [1] is 1.31 µM; in [2], 2.16 µM; in experiment [3] it was 1.04 µM; in [4] it was 0.385 µM; in experiment [5] it was 1.69 µM; in experiment [6] it was 1.17 µM. Also, the GI50 is 0.392 µM in [7], 0.483 µM in experiment [8], 0.372 µM in [9] and 0.377 µM in experiment [10]. Moreover, the TGI in experiment [1] was determined as 2.65 µM; in experiment [2], 5.37 µM; in experiment [3], 2.68 µM; in [4], 1.65 µM; in [5] it was 3.36 µM; in experiment [6] it was 2.59 µM. For the same compound, the TGI turned out to be 1.73 µM in experiment [7], 1.85 µM in experiment [8], 1.46 µM in [9] and 1.59 µM in [10].

As to `CCCCCCCCOCC(O)CO` (centres undefined), the TGI in experiment [1], in experiment [2], in experiment [3], in experiment [4], in experiment [5] and in experiment [6] was greater than 100 µM in each case. The TGI in experiment [7], in experiment [8], in [9] and in [10] was greater than 100 µM each time.

As for `CC1=C(C(=O)NCc2ccccc2)C(c2ccc(Cl)c(Cl)c2)C(C(=O)NCc2ccccc2)=C(C)N1`, the TGI in experiment [1], in experiment [2], in experiment [3], in experiment [4], in [5] and in experiment [6] was greater than 100 µM each time. For the same compound, the TGI in experiment [7], in experiment [8], in [9] and in experiment [10] was greater than 100 µM throughout.

Turning to `O=C1N2Cc3c4ccc5c3CN3C(=O)N6Cc7c(ccc(c7CN1C6(c1ccccc1)C23c1ccccc1)OCCOCCOc1cc(Br)c(Br)cc1OCCOCCO4)OCCOCCOc1cc(Br)c(Br)cc1OCCOCCO5` (centres undefined), the TGI in experiment [1] was greater than 100 µM; in [2], greater than 100 µM; in experiment [3], greater than 100 µM; in [4], greater than 100 µM; in [5] it was 67.7 µM; in [6], greater than 100 µM. In addition, the TGI in experiment [7], in experiment [8], in experiment [9] and in experiment [10] was greater than 100 µM throughout.

As for `Cc1ccc(S(=O)(=O)N2CCCSCCSCCCN(S(=O)(=O)c3ccc(C)cc3)CC2)cc1`, the TGI in experiment [1], in experiment [2], in experiment [3], in [4], in experiment [5] and in experiment [6] was greater than 100 µM each time. In addition, the TGI in [7], in [8], in experiment [9] and in [10] was greater than 100 µM in each case.

For the compound `Cc1c(Cl)c(=O)oc2cc(OC/C=C3\CCC(=O)O3)ccc12`, the GI50 in [1] was 12.8 µM; in experiment [2], 4.22 µM; in experiment [3] it was 29.9 µM; in experiment [4], 13.9 µM; in experiment [5], 15.3 µM; in experiment [6] it was 23.6 µM. Besides, the GI50 was 17.4 µM in experiment [7], 26.9 µM in [8], 16.8 µM in [9] and 17.7 µM in experiment [10]. The TGI in [1] is 29.3 µM; in experiment [2] it was 17.9 µM; in experiment [3], greater than 100 µM; in experiment [4], 28.3 µM; in experiment [5] it was 30 µM; in experiment [6], 66.1 µM. Besides, the TGI in [7] was 32.7 µM; in experiment [8], greater than 100 µM; in experiment [9], 41.4 µM; in [10], 51.7 µM.

For `CC1=C(/C=C/C(=O)CC(=O)/C=C/C2=C(C)CCCC2(C)C)C(C)(C)CCC1`, the GI50 in experiment [1] was 25.2 µM; in [2], 34.3 µM; in experiment [3], 15.5 µM; in experiment [4], 27.7 µM; in [5], 30.8 µM; in experiment [6] it was 32.3 µM. Further, the GI50 is 24.9 µM in experiment [7], 18.6 µM in experiment [8], 40.3 µM in [9] and 33.2 µM in [10]. Also, the TGI in experiment [1] was greater than 100 µM; in [2] it was greater than 100 µM; in experiment [3], 52.8 µM; in experiment [4], greater than 100 µM; in experiment [5], greater than 100 µM; in experiment [6] it was greater than 100 µM. Moreover, the TGI in experiment [7] was greater than 100 µM; in experiment [8] it was 82.1 µM; in experiment [9], greater than 100 µM; in experiment [10], greater than 100 µM.

`CC[C@@]1(OC(=O)C(N)CCCCN)C(=O)OCc2c1cc1n(c2=O)Cc2cc3ccccc3nc2-1` (some centres undefined): the TGI in [1] was 0.163 µM; in [2], 0.129 µM; in experiment [3], greater than 30.6 µM; in experiment [4], 0.495 µM; in [5], 15.6 µM; in experiment [6], 0.0667 µM. For the same compound, the TGI was 0.282 µM in [7], 0.372 µM in experiment [8], 1.63 µM in experiment [9] and 12.2 µM in experiment [10].

In the case of `COc1cccc(-c2nn(-c3ccccc3)cc2-c2ccnc(NCCCNC(=O)c3cccc(C(F)(F)F)c3)c2)c1`, the GI50 is 3.75 µM in experiment [1]; 4.08 µM in [2]; 5.01 µM in experiment [3]; 3.81 µM in experiment [4]; 3.4 µM in experiment [5]; 10.3 µM in experiment [6]. The GI50 in [7] was 4.49 µM; in experiment [8], 4.03 µM; in experiment [9], 6.06 µM; in experiment [10], 6.03 µM. For the same compound, the TGI in [1] came out at 15.1 µM; in experiment [2], 18.3 µM; in experiment [3], 36.2 µM; in experiment [4], 16.1 µM; in experiment [5], 15.6 µM; in experiment [6] it was 30.6 µM. Further, the TGI is 24.2 µM in [7], 18.2 µM in experiment [8], 38.5 µM in experiment [9] and 31.2 µM in experiment [10].

Regarding `N#Cc1cnc2cc(OC[C@@H](O)CO)c(NC(=O)C3CCCC3)cc2c1Nc1ccc(OCc2cccc(F)c2)c(Cl)c1`, the GI50 in experiment [1] was 4.51 µM; in experiment [2], 3.01 µM; in [3], 1.33 µM; in experiment [4], 0.4 µM; in experiment [5] it was 2.45 µM; in experiment [6], 1.03 µM. Moreover, the GI50 is 1.87 µM in experiment [7], 1.05 µM in experiment [8], 1.88 µM in experiment [9] and 3.69 µM in experiment [10]. In addition, the TGI in experiment [1] is 11.7 µM; in experiment [2], greater than 50 µM; in experiment [3], 6.74 µM; in experiment [4] it was 1.1 µM; in [5], greater than 50 µM; in experiment [6], 2.62 µM. Further, the TGI in experiment [7] is 11.9 µM; in [8], 4.73 µM; in [9], 28.6 µM; in [10] it was greater than 50 µM.

For the compound `CC(C)(C)OC(=O)NCCCCn1c2c(c3ccccc3c1=O)C(=O)c1ccccc1-2`, the GI50 in experiment [1] was 21.7 µM; in experiment [2], 15.7 µM; in experiment [3], 61.5 µM; in experiment [4] it was 5.21 µM; in experiment [5], 35.3 µM; in experiment [6], 28.7 µM. For the same compound, the GI50 is 20.8 µM in experiment [7], 5.9 µM in experiment [8], 23.1 µM in [9] and 25.1 µM in [10]. Moreover, the TGI is 55.6 µM in experiment [1]; 50.2 µM in experiment [2]; greater than 100 µM in [3]; greater than 100 µM in [4]; greater than 100 µM in experiment [5]; greater than 100 µM in experiment [6]. In addition, the TGI turned out to be 43.4 µM in experiment [7], 34.8 µM in experiment [8], 69.3 µM in experiment [9] and 94.5 µM in experiment [10].

With `CCOC(=O)C(Cc1c[nH]c2cc(N(CCO)CCO)ccc12)(NC(C)=O)C(=O)OCC`, the GI50 in experiment [1] is 919 µM; in [2], 481 µM; in experiment [3], greater than 1000 µM; in experiment [4], 325 µM; in [5], 758 µM; in experiment [6] it was greater than 1000 µM. Further, the GI50 in experiment [7] is 491 µM; in [8] it was 433 µM; in experiment [9], 379 µM; in experiment [10] it was greater than 1000 µM. Besides, the TGI in experiment [1], in experiment [2], in [3], in experiment [4], in experiment [5] and in experiment [6] was greater than 1000 µM throughout. The TGI in experiment [7], in experiment [8], in [9] and in experiment [10] was greater than 1000 µM in each case.

Take `N#Cc1ccc(/C=C(/C(=O)c2ccccc2)c2ccccc2)cc1`: the TGI in experiment [1] turned out to be 15.5 µM; in experiment [2], 33.1 µM; in [3] it was 42.9 µM; in experiment [4], 11.3 µM; in experiment [5] it was 30.4 µM; in experiment [6], 40.2 µM. Besides, the TGI in experiment [7] is 35.2 µM; in experiment [8], 47.5 µM; in experiment [9], 25 µM; in experiment [10], 50.1 µM.

With `O=C(O)C1CC=CCC1C(=O)Nc1cccc(O)c1` (centres undefined), the TGI in [1], in experiment [2], in experiment [3], in [4], in [5] and in experiment [6] was greater than 100 µM in each case. Moreover, the TGI in experiment [7], in experiment [8], in [9] and in experiment [10] was greater than 100 µM throughout.

For the origin of these results see PubChem BioAssay (NCI).
